Experimental data: ChEMBL document CHEMBL4665624, “Synthesis of 5-(4-(1H-phenanthro[9,10-d]imidazol-2-yl)benzylidene)thiazolidine-2,4-dione as promising DNA and serum albumin-binding agents and evaluation of antitumor activity” (Eur J Med Chem, 2019)

Each molecule was assayed on NCI-H522 (assay: Antitumor activity against human NCI-H522 cells assessed as cell growth inhibition at 10 uM incubated for 48 hrs by sulforhodamine B assay). Details: read-out: GI.
Format: functional

SMILES | inhibition of growth at 10 µM
O=Cc1ccc(-c2nc3c([nH]2)-c2cccc4cccc-3c24)cc1 | < 10%

The molecules below were run on MDA-MB-231 (assay: Antitumor activity against human MDA-MB-231/ATCC cells assessed as cell growth inhibition at 10 uM incubated for 48 hrs by sulforhodamine B assay). Details: read-out: GI.
Format: functional

SMILES | inhibition of growth at 10 µM
O=Cc1ccc(-c2nc3c([nH]2)-c2cccc4cccc-3c24)cc1 | 25.6%

Each molecule was assayed on PC-3 (assay: Antitumor activity against human PC-3 cells assessed as cell growth inhibition at 10 uM incubated for 48 hrs by sulforhodamine B assay). Details: read-out: GI.
Format: functional

SMILES | inhibition of growth at 10 µM
O=Cc1ccc(-c2nc3c([nH]2)-c2cccc4cccc-3c24)cc1 | 21.1%

What follows are molecules tested on SW-620 (assay: Antitumor activity against human SW620 cells assessed as cell growth inhibition at 10 uM incubated for 48 hrs by sulforhodamine B assay). Details: SW-620, 48 h, read-out: GI.

SMILES | inhibition of growth at 10 µM
O=Cc1ccc(-c2nc3c([nH]2)-c2cccc4cccc-3c24)cc1 | < 10%

Each molecule was assayed on MOLT-4 (assay: Antitumor activity against human MOLT4 cells assessed as cell growth inhibition at 10 uM incubated for 48 hrs by sulforhodamine B assay). Details: read-out: GI.
Format: functional

SMILES | inhibition of growth at 10 µM
O=Cc1ccc(-c2nc3c([nH]2)-c2cccc4cccc-3c24)cc1 | 20.5%

Each molecule was assayed on BT-549 (assay: Antitumor activity against human BT-549 cells assessed as cell growth inhibition at 10 uM incubated for 48 hrs by sulforhodamine B assay). Details: read-out: GI.
Format: functional

SMILES | inhibition of growth at 10 µM
O=Cc1ccc(-c2nc3c([nH]2)-c2cccc4cccc-3c24)cc1 | < 10%

These molecules were tested on HL-60(TB) (assay: Antitumor activity against human HL-60(TB) cells assessed as cell growth inhibition at 10 uM incubated for 48 hrs by sulforhodamine B assay). Details: read-out: GI.
Format: functional

SMILES | inhibition of growth at 10 µM
O=Cc1ccc(-c2nc3c([nH]2)-c2cccc4cccc-3c24)cc1 | < 10%

Each molecule was assayed on MDA-MB-435 (assay: Antitumor activity against human MDA-MB-435 cells assessed as cell growth inhibition at 10 uM incubated for 48 hrs by sulforhodamine B assay). Details: read-out: GI.
Format: functional

SMILES | inhibition of growth at 10 µM
O=Cc1ccc(-c2nc3c([nH]2)-c2cccc4cccc-3c24)cc1 | < 10%

What follows are molecules tested on NCI-H460 (assay: Antitumor activity against human NCI-H460 assessed as cell growth inhibition at 10 uM incubated for 48 hrs by sulforhodamine B assay). Details: read-out: GI.
Format: functional

SMILES | inhibition of growth at 10 µM
O=Cc1ccc(-c2nc3c([nH]2)-c2cccc4cccc-3c24)cc1 | 23.6%

The molecules below were run on SR (assay: Antitumor activity against human SR cells assessed as cell growth inhibition at 10 uM incubated for 48 hrs by sulforhodamine B assay). Details: read-out: GI.
Format: functional

SMILES | inhibition of growth at 10 µM
O=Cc1ccc(-c2nc3c([nH]2)-c2cccc4cccc-3c24)cc1 | 16%

What follows are molecules tested on A498 (assay: Antitumor activity against human A498 cells assessed as cell growth inhibition at 10 uM incubated for 48 hrs by sulforhodamine B assay). Details: read-out: GI.
Format: functional

SMILES | inhibition of growth at 10 µM
O=Cc1ccc(-c2nc3c([nH]2)-c2cccc4cccc-3c24)cc1 | < 10%

These molecules were tested on LOX IMVI (assay: Antitumor activity against human LOX IMVI cells assessed as cell growth inhibition at 10 uM incubated for 48 hrs by sulforhodamine B assay). Details: read-out: GI.
Format: functional

SMILES | inhibition of growth at 10 µM
O=Cc1ccc(-c2nc3c([nH]2)-c2cccc4cccc-3c24)cc1 | 25.8%

The molecules below were run on SK-OV-3 (assay: Antitumor activity against human SK-OV-3 cells assessed as cell growth inhibition at 10 uM incubated for 48 hrs by sulforhodamine B assay). Details: read-out: GI.
Format: functional

SMILES | inhibition of growth at 10 µM
O=Cc1ccc(-c2nc3c([nH]2)-c2cccc4cccc-3c24)cc1 | < 10%

Each molecule was assayed on UO-31 (assay: Antitumor activity against human UO-31 cells assessed as cell growth inhibition at 10 uM incubated for 48 hrs by sulforhodamine B assay). Details: read-out: GI.
Format: functional

SMILES | inhibition of growth at 10 µM
O=Cc1ccc(-c2nc3c([nH]2)-c2cccc4cccc-3c24)cc1 | 33.4%

The molecules below were run on Hs-578T (assay: Antitumor activity against human HS 578T cells assessed as cell growth inhibition at 10 uM incubated for 48 hrs by sulforhodamine B assay). Details: read-out: GI.
Format: functional

SMILES | inhibition of growth at 10 µM
O=Cc1ccc(-c2nc3c([nH]2)-c2cccc4cccc-3c24)cc1 | < 10%

What follows are molecules tested on SN12C (assay: Antitumor activity against human SN12C cells assessed as cell growth inhibition at 10 uM incubated for 48 hrs by sulforhodamine B assay). Details: read-out: GI.
Format: functional

SMILES | inhibition of growth at 10 µM
O=Cc1ccc(-c2nc3c([nH]2)-c2cccc4cccc-3c24)cc1 | < 10%

The molecules below were run on U-251 (assay: Antitumor activity against human U251 cells assessed as cell growth inhibition at 10 uM incubated for 48 hrs by sulforhodamine B assay). Details: read-out: GI.
Format: functional

SMILES | inhibition of growth at 10 µM
O=Cc1ccc(-c2nc3c([nH]2)-c2cccc4cccc-3c24)cc1 | < 10%

These molecules were tested on ACHN (assay: Antitumor activity against human ACHN cells assessed as cell growth inhibition at 10 uM incubated for 48 hrs by sulforhodamine B assay). Details: read-out: GI.
Format: functional

SMILES | inhibition of growth at 10 µM
O=Cc1ccc(-c2nc3c([nH]2)-c2cccc4cccc-3c24)cc1 | < 10%

Each molecule was assayed on OVCAR-8 (assay: Antitumor activity against human OVCAR-8 cells assessed as cell growth inhibition at 10 uM incubated for 48 hrs by sulforhodamine B assay). Details: read-out: GI.
Format: functional

SMILES | inhibition of growth at 10 µM
O=Cc1ccc(-c2nc3c([nH]2)-c2cccc4cccc-3c24)cc1 | < 10%

Each molecule was assayed on M14 (assay: Antitumor activity against human M14 cells assessed as cell growth inhibition at 10 uM incubated for 48 hrs by sulforhodamine B assay). Details: read-out: GI.
Format: functional

SMILES | inhibition of growth at 10 µM
O=Cc1ccc(-c2nc3c([nH]2)-c2cccc4cccc-3c24)cc1 | < 10%

Each molecule was assayed on KM12 (assay: Antitumor activity against human KM12 cells assessed as cell growth inhibition at 10 uM incubated for 48 hrs by sulforhodamine B assay). Details: read-out: GI.
Format: functional

SMILES | inhibition of growth at 10 µM
O=Cc1ccc(-c2nc3c([nH]2)-c2cccc4cccc-3c24)cc1 | 13%

The molecules below were run on CCRF-CEM (assay: Antitumor activity against human CCRF-CEM cells assessed as cell growth inhibition at 10 uM incubated for 48 hrs by sulforhodamine B assay). Details: read-out: GI.
Format: functional

SMILES | inhibition of growth at 10 µM
O=Cc1ccc(-c2nc3c([nH]2)-c2cccc4cccc-3c24)cc1 | 11.1%

What follows are molecules tested on RXF 393 (assay: Antitumor activity against human RXF 393 cells assessed as cell growth inhibition at 10 uM incubated for 48 hrs by sulforhodamine B assay). Details: read-out: GI.
Format: functional

SMILES | inhibition of growth at 10 µM
O=Cc1ccc(-c2nc3c([nH]2)-c2cccc4cccc-3c24)cc1 | < 10%

These molecules were tested on SK-MEL-28 (assay: Antitumor activity against human SK-MEL-28 cells assessed as cell growth inhibition at 10 uM incubated for 48 hrs by sulforhodamine B assay). Details: read-out: GI.
Format: functional

SMILES | inhibition of growth at 10 µM
O=Cc1ccc(-c2nc3c([nH]2)-c2cccc4cccc-3c24)cc1 | < 10%
